Measured values as given in patent publication US20100048713A1, “COMPOUNDS ACTING ON THE SEROTONIN TRANSPORTER” (Aarhus Universitet, priority 2006, published 2010).

How the values were obtained:
[1] = target: T1, hSERT (Homo sapiens, UniProt P31645); assay: Binding of [125I]-RTI-55 in whole cell assay, hSERT; settings: displacement of [125I]-RTI-55
T1 construct: expressed in transfected cells; the general 96-well protocol names Cos-1
From the text: RTI-55 was used to test for the compounds of the present invention to act as displacers of cocain.
Because RTI-55 (and cocaine) acts as inhibitors of SERT and DAT, we also performed the binding assay in cells transfected with human DAT.

[2] = target: T1, hSERT; assay: Binding assay on whole cells transfected with hSERT ([3H]-citalopram displacement); settings: for EC50: whole cell assay, 35 nM [3H]-citalopram, 60 min room temperature, table title: 45 min preincubation
Experimental: The pcDNA3 plasmid vector containing the hSERT gene was used for transfection (see FIG. 6).
The 96-well plate was washed with PBSCM to remove DMEM prior to the assay. […] The plate was subsequently incubated for 60 min at room temperature. The assay was terminated by washing once with PBSCM. The amount of accumulated [^3H]-citalopram was determined by solubilizing cells in scintillant (MicroScint 20) with direct counting of plates in a Packard TopCounter. Data was analyzed by GraphPad software.

[3] = target: T1, hSERT; assay: Dissociation assay with [3H]-citalopram and hSERT membrane preparations; format: binding; settings: for Stabilises dissociation of [3H]-citalopram: own effect (10 uM fluoxetine) (concentration which affects dissociation): 10 uM fluoxetine in dissociation buffer; for Stabilises dissociation of [3H]-citalopram: 15 uM citalopram (concentration which affects dissociation): 15 uM citalopram in dissociation buffer
Experimental: (§1) 17.5 μl Fugene-6 (Roche Molecular Biochemicals) were mixed with 280 μl Dulbecco's modified Eagle's medium, and incubated at room temperature for 5 minutes. 10 μg of plasmid were added and the mixture was further incubated at least 15 minutes. […] Prior to harvesting the dish was rinsed in PBS. Cells were harvested with a cell scraper in buffer 1 (50 mM Tris-base, 150 mM NaCl, 20 mM EDTA, pH 7.4). After centrifugation (3000 g at 4° C. for 10 mins), cells were suspended and homogenized with an IKA Ultra-Turrax from Rose Scientific Ltd (Edmonton, Alberta, Canada) for 20 s in buffer 1. Membranes were pelleted by ultracentrifugation (12 000 g at 4° C. for 15 min) and homogenization was repeated in buffer 1. Finally, after ultracentrifugation (12000 g, 4° C., 15 min) membranes were resuspended in 1 ml buffer 3 (50 mM Tris-base, 120 mM NaCl, 5 mM KCl, pH 7.4) and stored at −80° C.
Dissociation assay with [^3H]-citalopram and membrane preparations SERT-[^3H]-citalopram complex was formed by incubating hSERT membrane preparation and radioligand in buffer 3 during a 60 min incubation at 4° C. Radioligand was present at a concentration 10 times the Kd value. The time kinetic of dissociation was followed by adding 10 μL complex solution to 250 μL buffer 3 in 96-well plates and incubating subsequently for increasing time intervals at RT. Reactions were terminated by filtration through GF/C glass-fibre filters (Unifilter, Perkin Elmer Life Sciences), preincubated with 40 μl 0.5 % polyethyleneimine, using a Pachard Bell cell harvester, and subsequently washed three times with water. Filters were soaked in 40 μl Microscint 20 scintillation liquid (Pachard Bell). Bound radioactivity was determined by direct counting of plates using a Packard Bell microplate scintillation counter. Dissociation curves were obtained by plotting residual binding vs. time of dissociation.
The interaction of the allosteric ligand with the allosteric mechanism used by citalopram was studied by combining allosteric ligand and citalopram in the dissociation buffer. The interaction of the allosteric ligand with the radioligand was studied by combining the allosteric ligand and fluoxetine in the dissociation buffer.
(§2) Dissociation of [^3H]-citalopram from the serotonin transporter has been studied using membrane preparations from SERT-expressing cells. The off-rates of the radioligand were measured in the presence/absence of a fixed concentration of allosteric ligand. […] Additionally, the allosteric impact on the radioligand in the absence of citalopram, was studied by combining 10 μM fluoxetine and 200/2000 μM allosteric ligand in the dissociation buffer. […] The cells were incubated for 10 minutes before the assay was terminated by washing in PBSCM.

[4] = target: T1, hSERT; assay: 5-HT uptake assay with preincubation (whole cells); format: cell-based; settings: whole cell assay with preincubation (title 45 min, text 60 min), 75 nM [3H]-5-HT, 10 min
Experimental: 7 μl Fugene-6 was mixed with 112 μl Dulbecco's modified Eagle's medium, and incubated at room temperature for 5 minutes. 4 μg of plasmid were added and the mixture was further incubated at least 15 minutes. Cos-1 cells were trypsinized and suspended in growth media, and the plasmid/Fugene-6 mixture was added followed by dispersion into a 96-well plate.
The 96-well plate was washed with PBSCM to remove DMEM prior to the assay. 50 μl PBSCM containing increasing concentrations of allosteric ligand were added to each well, and incubated for 60 min at room temperature under moderate agitation. […] The plate was subsequently incubated for 10 min at room temperature. The assay was terminated by washing once with PBSCM. The amount of accumulated [^3H]-5-HT was determined by solubilizing cells in scintillant (MicroScint 20) with direct counting of plates in a Packard TopCounter. Data was analyzed by GraphPad software.
We tested the allosteric ligands for their ability to inhibit/activate 5-HT-uptake in the whole-cell assay after 60 minutes preincubation.

[5] = target: T1, hSERT; assay: Binding of [3H]-citalopram to membrane preparations; settings: 35 nM [3H]-citalopram, 60 min RT
Experimental: as §1
A dilution series of the allosteric ligand was prepared in buffer 3 containing 70 nM [^3H]-citalopram. […] The mixture was incubated under moderate agitation at RT for 60 min. Reactions were terminated by filtration through GF/C glass-fibre filters (Unifilter, Perkin Elmer Life Sciences), preincubated with 40 μl 0.5 % polyethyleneimine, using a Pachard Bell cell harvester, and subsequently washed three times with water. Filters were soaked in 40 μl Microscint 20 scintillation liquid (Pachard Bell). Bound radioactivity was determined by direct counting of plates using a Packard Bell microplate scintillation counter. Displacing curves were obtained by plotting residual binding vs. log concentration of the displacing ligand.

[6] = target: T1, hSERT; assay: 5-HT uptake assay, 10 min incubation without preincubation; format: cell-based; settings: 75 nM [3H]-5-HT, no preincubation
Experimental: Cells were grown for 48 h to confluency, and prior to uptake assay, plates were washed in PBSCM. All washing steps were carried out in an automatic plate washer. […] The assay was terminated by washing with PBSCM. The amount of accumulated [^3H]-5HT was determined by solubilizing cells in scintillant (MicroScint 20) with direct counting of plates in a Packard TopCounter. Data was analyzed by GraphPad software.
as §2

T1 sequence (P31645 whole entry): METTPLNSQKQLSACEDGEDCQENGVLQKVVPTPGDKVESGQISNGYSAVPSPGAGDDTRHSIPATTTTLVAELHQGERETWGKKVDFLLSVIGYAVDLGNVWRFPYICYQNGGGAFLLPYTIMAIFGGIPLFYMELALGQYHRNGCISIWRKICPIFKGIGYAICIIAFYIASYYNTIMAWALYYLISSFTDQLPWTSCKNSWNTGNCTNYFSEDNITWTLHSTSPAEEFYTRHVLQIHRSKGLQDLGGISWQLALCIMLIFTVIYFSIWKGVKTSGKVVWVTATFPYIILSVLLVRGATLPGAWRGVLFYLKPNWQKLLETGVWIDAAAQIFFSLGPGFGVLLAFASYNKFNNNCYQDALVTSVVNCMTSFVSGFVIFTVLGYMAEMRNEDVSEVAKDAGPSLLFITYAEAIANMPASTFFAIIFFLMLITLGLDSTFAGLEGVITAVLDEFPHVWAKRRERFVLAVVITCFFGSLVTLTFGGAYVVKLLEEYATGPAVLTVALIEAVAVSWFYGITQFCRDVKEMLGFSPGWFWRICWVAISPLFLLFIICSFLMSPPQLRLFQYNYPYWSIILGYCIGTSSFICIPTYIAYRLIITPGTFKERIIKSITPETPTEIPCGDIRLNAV

Row | SMILES | EC50 [1] | EC50 [2] | Stabilises dissociation of [3H]-citalopram: own effect (10 uM fluoxetine) (concentration which affects dissociation) [3] | Stabilises dissociation of [3H]-citalopram: 15 uM citalopram (concentration which affects dissociation) [3] | IC50 [4] | Binding of [3H]-citalopram (Bmax) [5] | 5-HT uptake (effect) [6] | 5-HT uptake (effect) ([6]; listed as PefaCl) | concentration that increases the allosteric impact on dissociation by 15 μM citalopram (FIG. 7) ([3]; 15 μM citalopram) | displacement of the radioligand (FIG. 3) ([2]; increasing concentrations, 60 minutes incubation at room temperature)
1 | CCOS(=O)(=O)c1cccc2ccccc12 [1-NSC react. EtOH, 1-Naphthalene sulfonic acid ethyl ester] | 462 µM | 533 µM | 300 µM | 300 µM | 110 µM | Displace | Inhibition |  |  | 
2 | O=S(=O)(Cl)c1ccccc1 [BSC, benzenesulfonyl chloride] |  |  |  | 3000 µM |  | No effect | Increase |  |  | 
3 | O=S(=O)(Cl)Cc1ccccc1 [PMSC] |  |  |  | No effect |  | No effect | Increase |  |  | 
4 | NCCc1ccc(S(=O)(=O)Cl)cc1 [PefaCI, 4-(2-Aminoethyl)benzenesulfonyle cloride] |  | 1650 µM | 2000 µM | 2000 µM |  | No effect | Increase | increases 5-HT uptake |  | 
5 | Cc1ccc(S(N)(=O)=O)cc1 [TS1] |  | > 2000 µM | 2000 µM | 200 µM | > 2000 µM | No effect | Increase |  | 2000 µM | 
6 | O=P(O)(O)c1ccccc1 [TS4] |  | > 2000 µM |  |  | > 2000 µM |  |  |  |  | 
7 | O=S(=O)(c1ccccc1)c1ccccc1 [TS5] |  | > 2000 µM |  |  | > 2000 µM |  |  |  |  | 
8 | COS(=O)(=O)c1ccc(C)cc1 [TS6] |  | > 2000 µM | No effect | 2000 µM | > 2000 µM | No effect | Increase |  |  | 
9 | CN(C)c1cccc2c(S(=O)(=O)Cl)cccc12 [TS7] |  | 1390 µM |  |  | > 2000 µM |  |  |  |  | 
10 | NC(=O)c1ccccc1 [TS10] |  | > 2000 µM |  |  | 1150 µM |  |  |  |  | 
11 | Nc1cccc2cccc(S(=O)(=O)O)c12 [TS11] |  |  |  |  | > 2000 µM |  |  |  |  | 
12 | Cc1ccc(S(=O)(=O)N(C)N=O)cc1 [TS13] |  | > 2000 µM | 200 µM | 200 µM | > 2000 µM | displace | Increase |  |  | 
13 | [C-]#[N+]CS(=O)(=O)c1ccc(C)cc1 [TS15] |  | > 2000 µM | 2000 µM | 2000 µM | > 2000 µM | No effect | No effect |  |  | 
14 | C=CS(=O)(=O)c1ccccc1 [TS17] |  | 1050 µM | 2000 µM | 2000 µM | > 2000 µM | No effect |  |  |  | 
15 | Nc1cccc2ccccc12 [TS18] |  | 1030 µM |  |  | 458 µM |  |  |  |  | 
16 | Nc1cccc2c(N)cccc12 [TS19] |  | 950 µM |  |  | 422 µM |  |  |  |  | displaces the radioligand
17 | Clc1cccc2ccccc12 [TS20] |  | > 2000 µM | 200 µM | 200 µM | 373 µM | No effect | Inhibition |  |  | 
18 | N#Cc1cccc2ccccc12 [TS21] |  | > 2000 µM |  |  | 60 µM |  |  |  |  | 
19 | O=[N+]([O-])c1cccc2ccccc12 [TS22] |  | > 2000 µM | 200 µM | 200 µM | 2.9 µM | No effect | Inhibition |  |  | 
20 | Cc1ccc2ccccc2c1[N+](=O)[O-] [TS23] |  | 1020 µM |  |  | 15.9 µM |  |  |  |  | 
21 | O=[N+]([O-])c1ccc(F)c2ccccc12 [TS25] |  | > 2000 µM |  |  | 25.9 µM |  |  |  |  | 
